According to patent US11179306B2, “Use of salicylic acid derivatives as prodesquamating active agent” (L'OREAL, priority 2013, dated 2021):

Columns and labels:
[1] = tested on: stratum corneum of viable human skin; test: Desquamating activity: cohesion of the stratum corneum on excised human skin maintained under survival conditions; type: cell-based; settings: for Score (mean ± sd, n = 6), decrease in the cohesion of the stratum corneum / Appearance of the stratum corneum compared with control skin: 5% by weight in ethanol; for Score (mean ± sd, n = 6), decrease in the cohesion of the stratum corneum: 15 μl per 1 cm^2, applied at D0 and D1, histology at D2, score 0 (absence of modification) to 4 (very large decrease with exfoliation), 6 donors; for Appearance of the stratum corneum compared with control skin: morphology comparison; for Decrease in the cohesion of the stratum corneum with respect to the control skin (desquamating effect): at 5%, paired Student test, p<0.05
Method: The study is targeted at detecting the desquamating potential of the active agents in simplex solution by observation of the cohesion of the stratum corneum.
The keratolytic effect on excised skin maintained under survival conditions at 5% by weight in ethanol was evaluated. The study was carried out on viable human skin resulting from abdominal or breast reduction plastic surgery (6 donors).
(§1) The protocol consists in applying the test solutions to skin samples maintained under survival conditions. The products tested are applied in a proportion of 15 μl per 1 cm^2 sample and are not rinsed off. Application is carried out twice, at D0 and then, 24 hours later, at D1. The morphology of the stratum corneum is analysed 48 hours after the first application, at D2, on a biopsy.
The solutions applied are the following: • compound A of Example 1, at 5% by weight in ethanol, and • compound B of Example 2, at 5% by weight in ethanol.
By way of comparison, no solution is applied to some samples, referred to as controls.
The histological analysis of the horny layer is carried out on a skin section after staining with hemalaun-eosin (magnification 400).
6 samples were used for each of the tests (control, compound A and compound B). A paired Student test (p<0.05) was carried out in order to evaluate the significance of the difference with respect to the control.

[2] = tested on: epidermis of viable human skin; test: Tolerance of the skin: morphology of the epidermis of treated excised human skin; type: cell-based; settings: 5% by weight in ethanol, compared with control skin
Method: as §1
In order to validate the desquamating properties of the compounds A and B and to evaluate the tolerance of the skin to these treatments, the morphology of a control skin was in addition compared with the morphology of the skin samples treated with A and with B present in a content of 5% by weight in ethanol, according to the protocol described above.

Row | SMILES | Score (mean ± sd, n = 6), decrease in the cohesion of the stratum corneum [1] | Appearance of the stratum corneum compared with control skin [1] | Decrease in the cohesion of the stratum corneum with respect to the control skin (desquamating effect) [1] | Morphology of the epidermis (tolerance of the skin) [2]
1 | O=C(O)c1c(O)cccc1CCCCCCCCO [Compound A] | 1.85 ± 0.4 | decrease in the cohesion of the stratum corneum | statistically significant | preservation of the morphology of the epidermis
2 | O=C(O)CCCCCCCc1cccc(O)c1C(=O)O [Compound B] | 1.75 ± 0.2 | decrease in the cohesion of the stratum corneum | statistically significant | preservation of the morphology of the epidermis
